In US20170008888A1 (KYORIN PHARMACEUTICAL CO., LTD., priority 2014, published 2017):
Where two headings read alike, the source gives them in different places.

Columns and labels:
Type in all cases: binding
AMPKa1 or AMPKa2 = test: Probe-based (AX9989) kinase profiling in Jurkat lysate: AMPKa1 or AMPKa2; conditions: for AMPKa1 or AMPKa2 Inhibition % at indicated screening concentration: screening concentration 1 μM
In short: (§1)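 Compounds were pre-incubated for 15 min at room temperature with gel-filtered Jurkat cell lysate supplemented with 20 mM MnCl2, after which the acyl phosphate ATP probe AX9989 was added at 5 μM final. Labeled active-site peptides were enriched after tryptic digestion and measured by LC/MS, with percent inhibition taken relative to samples without compound.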

[1] = target: T1, BRD4 bromodomain domain I [BRD4(1)] (Homo sapiens, UniProt O60885); test: BRD4 bromodomain domain 1 inhibition assay (TR-FRET); conditions: screening concentration 10 μM
T1 construct: BRD4 bromodomain domain I [BRD4(1)]; purchased Cayman Chemicals
In short: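 0.5% DMSO, in triplicate, using Cayman BRD4(1) TR-FRET protocol with slight modification. 670/620 nm ratio normalized to 10 μM JQ1, with DMSO control set as 0% inhibition.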

TAO2 = target: T2, TAO2 (Homo sapiens, UniProt Q9UL54); test: Probe-based (AX9989) kinase profiling in Jurkat lysate: TAO2; conditions: for inhibition at 0.1 µM: screening concentration 0.1 μM
T2 construct: screened for activity against several kinases in Jurkat cells; endogenous in cells; host or cells: Jurkat cell lysate
T2 sequence (Q9UL54 1-1235): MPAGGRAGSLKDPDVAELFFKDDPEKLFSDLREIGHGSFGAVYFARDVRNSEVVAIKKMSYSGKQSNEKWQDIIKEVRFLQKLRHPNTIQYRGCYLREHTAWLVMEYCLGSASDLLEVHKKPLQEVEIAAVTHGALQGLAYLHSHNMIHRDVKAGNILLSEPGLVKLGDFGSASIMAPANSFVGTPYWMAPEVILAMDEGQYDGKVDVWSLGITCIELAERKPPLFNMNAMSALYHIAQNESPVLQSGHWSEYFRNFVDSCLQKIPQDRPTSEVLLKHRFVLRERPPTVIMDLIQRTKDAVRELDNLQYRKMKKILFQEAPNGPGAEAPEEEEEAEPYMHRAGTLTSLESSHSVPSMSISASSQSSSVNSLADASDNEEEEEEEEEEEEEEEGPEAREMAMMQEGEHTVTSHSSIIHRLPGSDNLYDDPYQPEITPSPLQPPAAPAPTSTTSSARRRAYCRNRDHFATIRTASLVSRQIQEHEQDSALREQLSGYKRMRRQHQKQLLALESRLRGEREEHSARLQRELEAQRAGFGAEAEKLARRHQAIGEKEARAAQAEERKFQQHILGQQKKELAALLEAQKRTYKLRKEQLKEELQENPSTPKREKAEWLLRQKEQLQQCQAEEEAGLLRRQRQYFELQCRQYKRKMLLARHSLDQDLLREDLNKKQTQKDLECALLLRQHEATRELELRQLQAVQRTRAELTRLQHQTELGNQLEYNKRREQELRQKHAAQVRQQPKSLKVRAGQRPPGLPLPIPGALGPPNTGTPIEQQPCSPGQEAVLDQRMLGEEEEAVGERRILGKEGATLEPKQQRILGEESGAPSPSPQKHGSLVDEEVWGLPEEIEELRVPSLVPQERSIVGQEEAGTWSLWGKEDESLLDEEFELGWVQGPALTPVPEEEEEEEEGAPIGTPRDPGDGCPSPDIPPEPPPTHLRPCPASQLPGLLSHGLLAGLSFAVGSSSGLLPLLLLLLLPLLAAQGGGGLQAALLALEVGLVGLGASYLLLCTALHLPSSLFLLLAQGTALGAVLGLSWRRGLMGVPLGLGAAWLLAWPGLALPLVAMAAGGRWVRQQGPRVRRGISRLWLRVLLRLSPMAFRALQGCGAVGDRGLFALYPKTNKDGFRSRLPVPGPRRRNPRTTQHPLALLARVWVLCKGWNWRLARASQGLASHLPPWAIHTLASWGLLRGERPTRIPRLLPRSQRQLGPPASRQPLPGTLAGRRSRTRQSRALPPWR
In short: as §1

[2] = read-out: Kinase inhibition % at indicated screening concentration: TAO2
[3] = screening concentration 1.0 μM, read-out: Kinase inhibition % at indicated screening concentration: TAO2
[4] = screening concentration 1 μM, read-out: TAO2 Inhibition % at indicated screening concentration

SMILES | inhibition at 10 µM [1] [%] | Kinase inhibition % at indicated screening concentration: AMPKa1 or AMPKa2 (AMPKa1 or AMPKa2; screening concentration 1.0 μM) | inhibition at 1 µM (TAO2; [3]) [%] | other results
CCOc1cc(C(=O)NCCOC)ccc1Nc1cc2c(cn1)N(C)C(=O)c1ccccc1N2C [Compound 83] | < 70 | E (E is ≦35%) | ≤ 35 | 
CCOc1cc(C(=O)N(C)CCN(C)C)ccc1Nc1cc2c(cn1)N(C)C(=O)c1ccccc1N2C [Compound 88] | > 85 |  |  | Kinase inhibition % at indicated screening concentration: AMPKa1 or AMPKa2 (AMPKa1 or AMPKa2; screening concentration 0.1 μM): E (E is ≦35%); inhibition at 0.1 µM (TAO2; [2]): ≤ 35%
CCOc1cc(C(=O)N2CCCC(O)C2)ccc1Nc1cc2c(cn1)N(C)C(=O)c1ccccc1N2C (stereo not drawn) [Compound 93] | > 85 | E (E is ≦35%) | ≤ 35 | 
CCOc1cc(C(=O)N2CCN(C(C)(C)C)CC2)ccc1Nc1cc2c(cn1)N(C)C(=O)c1ccccc1N2C [Compound 94] | 70 to 85 |  |  | Kinase inhibition % at indicated screening concentration: AMPKa1 or AMPKa2 (AMPKa1 or AMPKa2; screening concentration 0.1 μM): E (E is ≦35%); inhibition at 0.1 µM (TAO2; [2]): ≤ 35%
CCOc1cc(C(=O)N2CCC[C@H](O)C2)ccc1Nc1cc2c(cn1)N(C)C(=O)c1ccccc1N2C [Compound 96] | > 85 |  |  | Kinase inhibition % at indicated screening concentration: AMPKa1 or AMPKa2 (AMPKa1 or AMPKa2; screening concentration 0.1 μM): E (E is ≦35%); inhibition at 0.1 µM (TAO2; [2]): ≤ 35%
CCOc1cc(C(=O)N[C@H]2CCCOC2)ccc1Nc1cc2c(cn1)N(C)C(=O)c1ccccc1N2C [Compound 100] | 70 to 85 | E (E is ≦35%) | ≤ 35 | 
CCOc1cc(C(=O)NCCN(CC)CC)ccc1Nc1cc2c(cn1)N(C)C(=O)c1ccccc1N2C [Compound 103] | 70 to 85 |  |  | Kinase inhibition % at indicated screening concentration: AMPKa1 or AMPKa2 (AMPKa1 or AMPKa2; screening concentration 0.1 μM): E (E is ≦35%); inhibition at 0.1 µM (TAO2; [2]): ≤ 35%
CCOc1cc(C(=O)NCCN2CCCC2)ccc1Nc1cc2c(cn1)N(C)C(=O)c1ccccc1N2C [Compound 105] | 70 to 85 | E (E is ≦35%) | ≤ 35 | 
Cc1cc(CN2CCCC2)ccc1Nc1cc2c(cn1)N(C)C(=O)c1ccccc1N2C [Compound 106, 5,11-dimethyl-3-(2-methyl-4-(pyrrolidin-1-ylmethyl)phenylamino)-5H-benzo[e]pyrido[3,4-b][1,4]diazepin-10(11H)-one] | < 70 | E (E is ≦35%) | 50 to 75 | 
CCOc1cc(C(=O)NCCc2ccncc2)ccc1Nc1cc2c(cn1)N(C)C(=O)c1ccccc1N2C [Compound 107] | < 70 | E (E is ≦35%) | ≤ 35 | 
CCOc1cc(C(=O)N2CCOCC2)ccc1Nc1cc2c(cn1)N(C)C(=O)c1ccccc1N2C [Compound 111] | > 85 | E (E is ≦35%) | ≤ 35 | 
CCOc1cc(C(=O)N2CCC(CN3CCOCC3)CC2)ccc1Nc1cc2c(cn1)N(C)C(=O)c1ccccc1N2C [Compound 120] | > 85 | E (E is ≦35%) | ≤ 35 | 
CCOc1cc(C(=O)N(CC)CCN(CC)CC)ccc1Nc1cc2c(cn1)N(C)C(=O)c1ccccc1N2C [Compound 122] | 70 to 85 | E (E is ≦35%) | ≤ 35 | 
CCOc1cc(C(=O)N2C[C@H]3CCN[C@H]3C2)ccc1Nc1cc2c(cn1)N(C)C(=O)c1ccccc1N2C [Compound T5] | 70 to 85 |  |  | AMPKa1 or AMPKa2 Inhibition % at indicated screening concentration (AMPKa1 or AMPKa2): E (E is ≦35%); inhibition at 1 µM (TAO2; [4]): ≤ 35%
CCOc1cc(C(=O)N2CCN(C3CCN(C)CC3)CC2)ccc1Nc1cc2c(cn1)N(C)C(=O)c1ccccc1N2C [Compound T8] | > 85 |  |  | AMPKa1 or AMPKa2 Inhibition % at indicated screening concentration (AMPKa1 or AMPKa2): E (E is ≦35%); inhibition at 1 µM (TAO2; [4]): ≤ 35%
CCOc1cc(C(=O)N2CC[C@@H](NCCF)C2)ccc1Nc1cc2c(cn1)N(C)C(=O)c1ccccc1N2C [Compound T9] | 70 to 85 |  |  | AMPKa1 or AMPKa2 Inhibition % at indicated screening concentration (AMPKa1 or AMPKa2): E (E is ≦35%); inhibition at 1 µM (TAO2; [4]): ≤ 35%
CCOc1cc(C(=O)N2CCC(N3CC[C@@H](O)C3)CC2)ccc1Nc1cc2c(cn1)N(C)C(=O)c1ccccc1N2C [Compound T10] | > 85 |  |  | AMPKa1 or AMPKa2 Inhibition % at indicated screening concentration (AMPKa1 or AMPKa2): E (E is ≦35%); inhibition at 1 µM (TAO2; [4]): ≤ 35%

Second part, led by results:

inhibition at 10 µM [1] [%] | Kinase inhibition % at indicated screening concentration: AMPKa1 or AMPKa2 (AMPKa1 or AMPKa2; screening concentration 1.0 μM) | inhibition at 1 µM (TAO2; [3]) [%] | SMILES | other results
> 85 |  |  | CCOc1cc(C(=O)N2CCNC[C@H]2C)ccc1Nc1cc2c(cn1)N(C)C(=O)c1ccccc1N2C [Compound 82] | Kinase inhibition % at indicated screening concentration: AMPKa1 or AMPKa2 (AMPKa1 or AMPKa2; screening concentration 0.1 μM): E (E is ≦35%); inhibition at 0.1 µM (TAO2; [2]): ≤ 35%
< 70 | E (E is ≦35%) | ≤ 35 | CCOc1cc(C(=O)NCCn2ccnc2)ccc1Nc1cc2c(cn1)N(C)C(=O)c1ccccc1N2C [Compound 84] | 
> 85 |  |  | CCOc1cc(C(=O)N2CCC(N3CCCC3)CC2)ccc1Nc1cc2c(cn1)N(C)C(=O)c1occc1N2C [Compound 91, 6-((2-Ethoxy-4-(4-(pyrrolidin-1-yl)piperidine-1-carbonyl)phenyl)amino)-4,9-dimethyl-4H-furo[3,2-e]pyrido[3,4-b][1,4]diazepin-10(9H)-one] | Kinase inhibition % at indicated screening concentration: AMPKa1 or AMPKa2 (AMPKa1 or AMPKa2; screening concentration 0.1 μM): E (E is ≦35%); inhibition at 0.1 µM (TAO2; [2]): ≤ 35%
70 to 85 | E (E is ≦35%) | ≤ 35 | CCOc1cc(C(=O)NCCOCCO)ccc1Nc1cc2c(cn1)N(C)C(=O)c1ccccc1N2C [Compound 101] | 
< 70 | E (E is ≦35%) | ≤ 35 | CN1C(=O)c2ccccc2N(C)c2cc(NC3CCOCC3)ncc21 [Compound 102] | 
70 to 85 | E (E is ≦35%) | ≤ 35 | CCOc1cc(C(=O)N2CCN(CC)CC2)ccc1Nc1cc2c(cn1)N(C)C(=O)c1ccccc1N2C [Compound 108] | 
< 70 |  |  | CN1C(=O)c2ccccc2N(C)c2cc(Nc3ccc(C(=O)N4CC[C@@H](N(C)C)C4)cc3F)ncc21 [Compound 110] | Kinase inhibition % at indicated screening concentration: AMPKa1 or AMPKa2 (AMPKa1 or AMPKa2; screening concentration 10.0 μM): E (E is ≦35%); inhibition at 10 µM (TAO2; screening concentration 10.0 μM, read-out: Kinase inhibition % at indicated screening concentration: TAO2): 50 to 75%
> 85 |  |  | CCOc1cc(C(=O)N2CC(N3CCCCC3)C2)ccc1Nc1cc2c(cn1)N(C)C(=O)c1ccccc1N2C [Compound 114] | Kinase inhibition % at indicated screening concentration: AMPKa1 or AMPKa2 (AMPKa1 or AMPKa2; screening concentration 0.1 μM): E (E is ≦35%); inhibition at 0.1 µM (TAO2; [2]): ≤ 35%
70 to 85 | E (E is ≦35%) | ≤ 35 | CCOc1cc(C(=O)N2CC[C@@H](N(C)C)C2)ccc1Nc1cc2c(cn1)N(C)C(=O)c1ccccc1N2C [Compound 115] | 
> 85 |  |  | CCOc1cc(C(=O)N2CCC(NC(C)C)C2)ccc1Nc1cc2c(cn1)N(C)C(=O)c1ccccc1N2C (stereo not drawn) [Compound T4] | AMPKa1 or AMPKa2 Inhibition % at indicated screening concentration (AMPKa1 or AMPKa2): E (E is ≦35%); inhibition at 1 µM (TAO2; [4]): ≤ 35%
> 85 |  |  | CCOc1cc(C(=O)N2CCC(N3CC[C@H](O)C3)CC2)ccc1Nc1cc2c(cn1)N(C)C(=O)c1ccccc1N2C [Compound T11] | AMPKa1 or AMPKa2 Inhibition % at indicated screening concentration (AMPKa1 or AMPKa2): E (E is ≦35%); inhibition at 1 µM (TAO2; [4]): ≤ 35%
> 85 |  |  | CCOc1cc(C(=O)N2CCN(CCN(C)C)CC2)ccc1Nc1cc2c(cn1)N(C)C(=O)c1ccccc1N2C [Compound T14] | AMPKa1 or AMPKa2 Inhibition % at indicated screening concentration (AMPKa1 or AMPKa2): E (E is ≦35%); inhibition at 1 µM (TAO2; [4]): ≤ 35%
